Results published in a melting point compilation (Tetko et al.; mined from patent text by program, amines drawn as free bases though some values may be those of a salt).

With `Cc1nc(-c2ccc(C(F)(F)F)cc2)sc1COc1ccc(CC(=O)O)cc1` as the compound, how does the melting point read?
Its melting point is 149 to 150 °C.

Which melting point does the source give for `CC(C)(C)C(Cl)=NNc1cc(Cl)ccc1Cl` here?
Its melting point is 50 to 51 °C.

With `COCC1CN(c2ccc3nc(C(O)CCCO)sc3c2)C(=O)O1` (configuration not stated) as the compound, how does the melting point read?
Its melting point is 137 to 138 °C.

With `O=C(O)C(Sc1nc2ccccc2s1)c1ccccc1` (configuration not stated) as the compound, how does the melting point read?
The melting point was 152 to 154 °C.

With `COc1ccc2c(c1)CCC1C2CCC2(CC(C)C)C(O)CCC12` (configuration not stated) as the compound, how does the melting point read?
The melting point was 103 to 104 °C.

With `O=C(NCc1ccc(Cl)cc1)c1cn(-c2ccccn2)c2oc(CCl)cc2c1=O` as the compound, how does the melting point read?
Its melting point is 224 to 227 °C.

Which melting point does the source give for `CC(C)(O)c1ccc(CNC(=O)c2cccnc2Oc2ccc3ncoc3c2)cc1` here?
Its melting point is 92 to 94 °C.

With `Clc1ccc2c(c1)C(c1ccccc1)=NCc1nnc(Br)n1-2` as the compound, how does the melting point read?
The melting point was 206 °C.

With `Cc1cc(C)c2nc(NC3CCN(CCCS(N)(=O)=O)CC3)n(Cc3nc(C)ccc3O)c2c1` as the compound, how does the melting point read?
Its melting point is 180 °C.

With `O=C1CCN2C(=O)c3cccc(NC(=O)Nc4ccccn4)c3C2C1` (configuration not stated) as the compound, how does the melting point read?
The melting point was 254 °C.

With `OC1OC2CC3CC(C2)OC1O3` (configuration not stated) as the compound, how does the melting point read?
Its melting point is 185 to 194 °C.

For `CCOC(=O)CCN1CCC[C@H](NCc2ccccc2OC)[C@@H]1c1ccccc1` (relative stereo), which melting point is on record?
Its melting point is 110 to 112 °C.

With `c1ccc2c(N3CCNCC3)nccc2c1` as the compound, how does the melting point read?
Its melting point is 54 to 56 °C.

For `c1ccc(-c2nn3c(c2-c2ccc4nsnc4c2)CCC3)nc1`, which melting point is on record?
Its melting point is 184 to 186 °C.

With `COc1cc(C(C)C)c2c(c1)S(=O)(=O)N(COC(=O)c1ccsc1)C2=O` as the compound, how does the melting point read?
The melting point was 125 to 127 °C.

For `CC1CCc2ccc3ccccc3c2C1=O` (configuration not stated), which melting point is on record?
Its melting point is 61 to 63 °C.

Which melting point does the source give for `C=Cn1cc(C(=O)O)c(=O)c2cc(F)c(N3CCN(C(=O)OCC)CC3)nc21` here?
The melting point was 246 to 248 °C.

With `CC(C)c1nn(-c2ncc(C(F)(F)F)cc2Cl)cc1CCCO` as the compound, how does the melting point read?
The melting point was 66 to 67 °C.

For `O=C1Nc2ccccc2C1CCCCN1CCN(c2ccc(Cl)cc2)CC1` (configuration not stated), which melting point is on record?
Its melting point is 136 to 137 °C.

Which melting point does the source give for `O=C1CSc2ccc(CO)nc2N1` here?
The melting point was 120 to 135 °C.

For `O=C(O)c1ccc2c(c1)S(=O)(=O)c1ccc([N+](=O)[O-])cc1C2=O`, which melting point is on record?
The melting point was over 360 °C.

With `CCC(=O)Nc1c(C(O)(C(F)(F)F)C(F)(F)F)ccc2ccccc12` as the compound, how does the melting point read?
The melting point was 118 to 119 °C.

For `OCc1nc2n(n1)-c1cccnc1N(c1ccc(Cl)cc1)C2`, which melting point is on record?
The melting point was 240 to 245 °C.

Which melting point does the source give for `Cc1c[nH]c2c([N+](=O)[O-])cccc2c1=O` here?
Its melting point is 235 to 243 °C.

Which melting point does the source give for `Cc1c(C)c2c(c(Cl)c1C=O)OCC2` here?
The melting point was 129 °C.

With `C=C(C)c1ccc(C(F)(F)C(F)(F)c2ccccc2)cc1` as the compound, how does the melting point read?
The melting point was 97 to 104 °C.

Which melting point does the source give for `OC1(c2cccn2Cc2ccccc2F)CCN(CCc2ccccc2)CC1` here?
The melting point was 130 to 131 °C.

Which melting point does the source give for `COc1cn([C@H](C)c2cccc3ccccc23)c(=O)o1` here?
Its melting point is 89 to 91 °C.

For `CNC(=O)n1nc(Oc2ccc([N+](=O)[O-])cc2C(F)(F)F)cc1C`, which melting point is on record?
Its melting point is 142 to 144 °C.

For `Cc1ccc(C(=O)NCC(O)CO)cc1-n1c(C)cc(OCc2ccccc2CNC(=O)Nc2cc(C(C)(C)C)nn2-c2ccc(Cl)c(O)c2)c(Cl)c1=O` (configuration not stated), which melting point is on record?
Its melting point is 169 to 171 °C.

With `N#Cc1nn(-c2c(Cl)cc(C(F)(F)F)cc2Cl)c(N)c1C1=CCCCC1` as the compound, how does the melting point read?
Its melting point is 175 to 177 °C.

Which melting point does the source give for `CN1CCCC(COc2ccc(/C=c3\[nH]c(=O)/c(=C/c4ccccc4)[nH]c3=O)nc2)C1` (configuration not stated) here?
The melting point was 326 to 328 °C.

With `FC(F)(F)CN1CCOC(CN2c3ccccc3C=Cc3ccccc32)C1` (configuration not stated) as the compound, how does the melting point read?
The melting point was 97 to 98 °C.

For `O=C1OCCC1Oc1ccc(-c2ccccc2)cc1[N+](=O)[O-]` (configuration not stated), which melting point is on record?
The melting point was 117 to 119 °C.

With `Cc1cc(O)c2c(c1)CCCC2` as the compound, how does the melting point read?
The melting point was 95 to 96 °C.

Which melting point does the source give for `c1c(N2CCC3(CC2)OCCO3)nc(N2CCNCC2)nc1N1CCC2(CC1)OCCO2` here?
The melting point was 122 to 126 °C.

Which melting point does the source give for `O=C(Nc1ccc(NS(=O)(=O)c2ccc(Cl)c(Cl)c2)cc1)Nc1ccc([N+](=O)[O-])cc1` here?
The melting point was 207 to 209 °C.

With `CC(C)(C)c1ccc2c(c1)[C@H]1Cc3ccccc3[C@@]1(C)N2` (relative stereo) as the compound, how does the melting point read?
Its melting point is 82 to 84 °C.

For `CCCCCCCCCCCCc1cc(C(=O)O)c(C)o1`, which melting point is on record?
Its melting point is 70 to 73 °C.

For `CS(=O)(=O)c1ccc(-c2cnn(CC(F)(F)F)c(=O)c2NC2CCc3ccccc32)cc1` (configuration not stated), which melting point is on record?
Its melting point is 155 to 158 °C.

Which melting point does the source give for `COc1cc(Nc2nccc(-c3ccc(NCCCCO)nc3)n2)cc(OC)c1OC` here?
The melting point was 170 to 171 °C.

Which melting point does the source give for `O=C1N(Cc2c[nH]cn2)CCN1c1cccc(Cl)c1` here?
Its melting point is 201 to 203 °C.

For `O=C(O)CON=CCCl`, which melting point is on record?
Its melting point is 66 to 68 °C.

With `ClC(Cl)(Cl)C1Oc2ccc(C=NNc3ccccc3)cc2C(C(Cl)(Cl)Cl)O1` (configuration not stated) as the compound, how does the melting point read?
Its melting point is 191 to 192 °C.

Which melting point does the source give for `CC(C)n1nc2ccc(Cl)c([N+](=O)[O-])c2n1` here?
Its melting point is 67 to 70 °C.

With `COC(=O)c1ccccc1-c1nn[nH]n1` as the compound, how does the melting point read?
Its melting point is 132 to 135 °C.

Which melting point does the source give for `CCNc1nc(Nc2ccccc2)ncc1CO` here?
Its melting point is 174 to 176 °C.

Which melting point does the source give for `Oc1cccc(C(F)(F)F)n1` here?
Its melting point is 117 to 118 °C.

With `O=C1NC(=O)c2c(Sc3ccc([N+](=O)[O-])cc3)c(Sc3ccc([N+](=O)[O-])cc3)c(Sc3ccc([N+](=O)[O-])cc3)c(Sc3ccc([N+](=O)[O-])cc3)c21` as the compound, how does the melting point read?
Its melting point is 297 to 301 °C.

With `CCCCc1nc(O)cc(COC)n1` as the compound, how does the melting point read?
Its melting point is 96 to 98 °C.

Which melting point does the source give for `CNc1nc(Cl)cc(NS(=O)(=O)c2ccccc2)n1` here?
Its melting point is 186 to 187 °C.

For `CCCCCCCCCCCCCCCCN(CCCC)CCCCCCO`, which melting point is on record?
The melting point was 58 to 59 °C.
